According to PMC9127750, “Structure-based design of CDC42 effector interaction inhibitors for the treatment of cancer” (Cell reports, 2022):
Values joined by “and” are separate entries in the source; they are usually repeats but may differ in a detail not shown here. Equal values may be shown once.

Tested on: WM3248 melanoma cells, 486 antibodies
Assay: Reverse phase protein arrays (RPPA)
Format: cell-based, Human
Details: 10 uM
Text: Pellets were snap frozen in liquid nitrogen and shipped to MD Anderson Cancer Center core RPPA facility for RPPA analysis (Table S5). Three biological replicates for each sample were generated.
Nomenclatures on the RPPA heatmaps: name_of_antibody.species_of_antibody.status_of_antibody. V - antibody validated; C - validation of antibody in progress; Q - antibody nonspecific; E – under evaluation; antibodies raised in M - mouse, G - goat, R - rabbit, or T - rat.

CN(C)c1cccc(Nc2cc(-c3ccccc3)nc(C3CCNCC3)n2)c1 [ARN22089, N1,N1-dimethyl-N3-(6-phenyl-2-(piperidin-4-yl)pyrimidin-4-yl)benzene-1,3-diamine]
RPPA level MMP14.R.V (single replicates): 0.939 and 1.138 | RPPA level MR1.M.C (single replicates): 1.059 and 1.005 and 1.063 | RPPA level MRAP.R.C (single replicates): 1.023 and 1.051 | RPPA level MSH2.R.C (single replicates): 0.977 and 1.024 | RPPA level MSH6.R.C (single replicates): 0.940 and 0.976 | RPPA level MSI2.R.C (single replicates): 1.020 and 0.933 | RPPA level MTCO1.M.V (single replicates): 1.128 and 0.684 | RPPA level MTSS1.M.C (single replicates): 1.023 and 1.031 | RPPA level Mcl.1.R.V (single replicates): 0.823 and 0.973 and 0.929 | RPPA level MelanA.R.C (single replicates): 0.752 and 0.988 and 1.034 | RPPA level Melanoma.gp100.R.C (single replicates): 0.837 and 0.959 and 1.052 | RPPA level Merlin.R.C (single replicates): 1.020 and 0.924 | RPPA level Midkine.R.V (single replicates): 1.032 and 0.966 and 1.004 | RPPA level Mitofusin.1.R.V (single replicates): 0.925 and 1.003 and 1.050 | RPPA level Mitofusin.2.R.V (single replicates): 0.797 and 0.934 and 1.103 | RPPA level Mnk1.R.V (single replicates): 0.917 and 0.929 and 1.022 | RPPA level mTOR.R.V (single replicates): 1.016 and 0.918 and 0.854 | RPPA level mTOR_pS2448.R.C (single replicates): 1.016 and 0.946 and 0.924 | RPPA p21.R.C (single replicates): 1.203 and 0.773 and 1.055 | RPPA p27.Kip1.R.C (single replicates): 1.051 and 0.999 | RPPA p27_pT157.R.C (single replicates): 1.124 and 1.006 | RPPA p27_pT198.R.V (single replicates): 0.989 and 1.466 and 1.049 | RPPA p38.MAPK.R.V (single replicates): 0.899 and 0.964 and 1.062 | RPPA p38.MAPK._pT180_Y182.R.V (single replicates): 0.872 and 0.913 and 0.950 | RPPA p38.a.M.V (single replicates): 0.966 and 1.049 | RPPA p44.42.MAPK.R.V (single replicates): 0.852 and 0.899 | RPPA p53.R.C (single replicates): 0.871 and 0.886 and 0.966 | RPPA p70.S6K1.R.V (single replicates): 1.046 and 0.827 and 0.882 | RPPA p70.S6K_pT389.R.V (single replicates): 1.331 and 0.838 and 0.820 | RPPA p90RSK_pT573.R.C (single replicates): 1.224 and 0.922 and 1.014 | RPPA DNMT1.R.V (single samples): 1.052 and 0.962 and 1.050 | RPPA DRP1.R.V (single samples): 1.012 and 0.957 and 0.978 | RPPA DUSP4.R.V (single samples): 0.821 and 0.862 and 1.012 | RPPA DUSP6.R.C (single samples): 1.063 and 0.981 and 0.768 | RPPA DYRK1B.R.C (single samples): 1.057 | RPPA Dvl3.R.V (single samples): 0.885 and 1.058 and 1.012 | RPPA E2F1.R.V (single samples): 1.030 and 1.011 | RPPA E.Cadherin.R.V (single samples): 0.941 and 1.144 and 1.080 | RPPA EGFR.R.V (single samples): 0.824 and 0.981 and 0.985 | RPPA EGFR_pY1068.R.C (single samples): 0.993 and 0.982 | RPPA EGFR_pY1173.R.V (single samples): 0.968 and 1.017 and 0.987 | RPPA EMA.M.C (single samples): 1.080 and 1.274 | RPPA ENY2.M.C (single samples): 0.960 and 1.056 | RPPA ER.a.R.V (single samples): 0.808 and 0.999 and 1.013 | RPPA ER.a_pS118.R.V (single samples): 1.079 and 0.918 and 0.929 | RPPA ERCC1.R.C (single samples): 1.102 and 1.123 and 0.975 | RPPA ERCC5.R.C (single samples): 0.931 and 0.897 and 0.810 | RPPA ERRalpha.R.V (single samples): 1.149 and 0.962 | RPPA EVI1.R.V (single samples): 1.129 and 1.023 | RPPA Elk1_pS383.R.C (single samples): 0.944 and 1.020 and 1.011 | RPPA Enolase.1.R.V (single samples): 0.956 and 0.946 | RPPA Enolase.2.R.V (single samples): 1.058 and 1.146 and 1.060 | RPPA EphA2.R.V (single samples): 0.798 and 1.104 and 1.103 | RPPA EphA2_pY588.R.C (single samples): 0.976 and 0.887 | RPPA Erk5.R.V (single samples): 0.766 and 0.899 and 1.062 | RPPA Ets.1.R.V (single samples): 1.143 and 1.054 and 1.017 | RPPA FABP5.R.C (single samples): 0.909 and 1.032 and 1.076 | RPPA FAK.R.C (single samples): 0.856 and 0.998 | RPPA FAK_pY397.R.V (single samples): 1.077 and 0.996 | RPPA FANCD2.R.V (single samples): 1.119 and 0.953 and 0.957 | RPPA FASN.R.V (single samples): 1.052 and 0.855 and 0.656 | RPPA FGF.basic.R.C (single samples): 0.867 and 1.005 and 0.952 | RPPA FN14.R.C (single samples): 0.860 and 1.189 and 1.048 | RPPA FOXM1.R.V (single samples): 1.131 and 0.950 and 0.985 | RPPA FOXO3.R.V (single samples): 0.873 and 1.121 and 1.097 | RPPA FRS2.alpha_pY196.R.V (single samples): 1.003 and 1.811 | RPPA FTO.R.V (single samples): 1.061 and 0.989 and 0.960 | RPPA Fibronectin.R.V (single samples): 0.546 and 0.983 and 0.999 | RPPA FoxO3a_pS318_S321.R.C (single samples): 1.060 and 0.984 | RPPA G6PD.R.V (single samples): 1.051 and 1.085 and 1.058 | RPPA GATA3.M.V (single samples): 1.245 and 0.906 and 0.898 | RPPA GATA6.R.V (single samples): 1.116 and 0.978 | RPPA GCLC.R.C (single samples): 0.924 and 1.030 | RPPA GCLM.R.V (single samples): 1.052 and 1.025 and 1.000 | RPPA GCN5L2.R.V (single samples): 0.890 and 0.985 | RPPA GGPS1.M.V (single samples): 0.998 and 0.974 and 1.046 | RPPA GRB2.R.V (single samples): 0.833 and 0.898 and 0.998 | RPPA GRB7.R.V (single samples): 0.772 and 1.100 | RPPA GSK.3B.R.C (single samples): 0.886 and 0.913 and 0.953 | RPPA GSK.3a.b.M.V (single samples): 1.163 and 1.006 and 1.033 | RPPA GSK.3a.b_pS21_S9.R.V (single samples): 1.290 and 0.899 and 0.932
